For 66 compounds, IC50 results are on record in patent publication US9006450B2 (Boehringer Ingelheim International GmbH, priority 2010, dated 2015).

What is called IC50 is the concentration that inhibits the measured activity by half.

The experiment deals with T1, human ACC2 (Homo sapiens, UniProt O00763).
T1 construct: made in house; host or cells: insect cells (baculoviral expression system)
T1 sequence (O00763 129-2458 limits assumed): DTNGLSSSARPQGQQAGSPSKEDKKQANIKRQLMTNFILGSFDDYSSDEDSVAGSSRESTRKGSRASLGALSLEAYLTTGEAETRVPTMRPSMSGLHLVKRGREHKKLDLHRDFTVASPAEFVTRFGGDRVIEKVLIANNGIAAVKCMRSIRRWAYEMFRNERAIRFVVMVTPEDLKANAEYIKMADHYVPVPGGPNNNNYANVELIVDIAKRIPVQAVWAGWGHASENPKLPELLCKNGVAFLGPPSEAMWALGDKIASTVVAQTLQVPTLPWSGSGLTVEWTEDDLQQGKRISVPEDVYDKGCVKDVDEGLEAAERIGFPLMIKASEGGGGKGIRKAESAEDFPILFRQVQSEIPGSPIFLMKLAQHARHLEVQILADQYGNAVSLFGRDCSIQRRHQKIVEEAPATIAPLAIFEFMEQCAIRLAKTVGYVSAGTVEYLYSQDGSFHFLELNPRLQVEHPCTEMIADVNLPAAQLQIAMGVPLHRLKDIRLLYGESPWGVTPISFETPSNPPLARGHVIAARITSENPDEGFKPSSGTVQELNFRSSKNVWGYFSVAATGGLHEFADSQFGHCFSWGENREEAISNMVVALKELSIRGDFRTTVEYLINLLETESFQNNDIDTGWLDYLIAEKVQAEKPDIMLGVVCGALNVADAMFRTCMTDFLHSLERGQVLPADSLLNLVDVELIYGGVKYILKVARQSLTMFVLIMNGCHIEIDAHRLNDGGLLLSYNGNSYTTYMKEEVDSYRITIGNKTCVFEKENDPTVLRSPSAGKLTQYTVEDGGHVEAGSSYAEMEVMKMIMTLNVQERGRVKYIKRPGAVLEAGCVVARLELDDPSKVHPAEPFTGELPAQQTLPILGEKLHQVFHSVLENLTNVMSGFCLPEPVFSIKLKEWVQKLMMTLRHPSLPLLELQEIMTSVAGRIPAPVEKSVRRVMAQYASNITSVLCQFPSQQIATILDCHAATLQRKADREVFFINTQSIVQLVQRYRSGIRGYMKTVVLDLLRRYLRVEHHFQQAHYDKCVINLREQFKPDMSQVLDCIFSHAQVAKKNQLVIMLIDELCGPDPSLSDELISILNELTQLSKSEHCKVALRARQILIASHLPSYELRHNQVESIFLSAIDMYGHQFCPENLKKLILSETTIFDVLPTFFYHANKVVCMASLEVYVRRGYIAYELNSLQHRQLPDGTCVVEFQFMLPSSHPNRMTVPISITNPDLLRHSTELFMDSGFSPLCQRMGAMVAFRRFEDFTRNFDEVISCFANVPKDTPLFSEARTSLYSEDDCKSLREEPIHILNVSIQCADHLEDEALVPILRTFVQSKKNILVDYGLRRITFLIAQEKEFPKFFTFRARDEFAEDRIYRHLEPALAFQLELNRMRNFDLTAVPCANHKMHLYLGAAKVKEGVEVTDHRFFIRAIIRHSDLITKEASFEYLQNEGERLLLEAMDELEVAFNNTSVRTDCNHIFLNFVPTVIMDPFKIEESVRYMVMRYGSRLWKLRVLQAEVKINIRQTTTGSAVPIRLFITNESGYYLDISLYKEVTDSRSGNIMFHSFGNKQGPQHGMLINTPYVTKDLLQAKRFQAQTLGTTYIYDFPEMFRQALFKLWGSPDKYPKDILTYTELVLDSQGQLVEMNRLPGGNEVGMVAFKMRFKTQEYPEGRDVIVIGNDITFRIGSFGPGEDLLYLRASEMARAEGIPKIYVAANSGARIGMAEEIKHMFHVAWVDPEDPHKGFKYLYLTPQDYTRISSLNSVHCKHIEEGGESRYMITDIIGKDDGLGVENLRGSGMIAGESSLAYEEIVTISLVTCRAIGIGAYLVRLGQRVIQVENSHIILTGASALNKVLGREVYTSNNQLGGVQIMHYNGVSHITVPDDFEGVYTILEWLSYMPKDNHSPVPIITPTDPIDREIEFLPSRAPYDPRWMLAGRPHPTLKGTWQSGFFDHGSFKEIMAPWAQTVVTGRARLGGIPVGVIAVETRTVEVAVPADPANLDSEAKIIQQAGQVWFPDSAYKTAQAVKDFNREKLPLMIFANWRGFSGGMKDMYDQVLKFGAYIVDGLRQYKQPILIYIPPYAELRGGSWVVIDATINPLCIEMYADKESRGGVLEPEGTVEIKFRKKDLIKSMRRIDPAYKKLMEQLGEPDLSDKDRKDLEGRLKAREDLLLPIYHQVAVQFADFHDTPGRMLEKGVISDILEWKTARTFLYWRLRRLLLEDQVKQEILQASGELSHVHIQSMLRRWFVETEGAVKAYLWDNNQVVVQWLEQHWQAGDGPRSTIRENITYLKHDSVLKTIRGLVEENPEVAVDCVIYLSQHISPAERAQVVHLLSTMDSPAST
In words: ACC2 assay, spectrophotometric 384 well assay (NADH-linked, coupled lactate dehydrogenase/pyruvate kinase). Format: biochemical. Conditions: ACC2 assay, hACC2 construct lacking 128 N-terminal amino acids, 25° C., 340 nm; read-out: IC50. The procedure, abridged:
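Human ACC2 lacking N-terminal 128 aa, baculovirus/insect-cell expressed, anion-exchange purified; 100 mM Tris pH 7.5, 10 mM citrate, 25 mM KHCO3, 1% DMSO. Started with 200 μM NADH and acetyl-CoA plus 500 μM ATP; PK/LDH-coupled A340 decrease read 15 min at 25° C. IC50 by nonlinear fit of low-control-subtracted slopes.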
For `CC(=O)N[C@@H](C)c1ccc(C2CCN(c3ccc(C)nc3)CC2)cc1` [Example 15.5], the IC50 is 17700 nM. In the case of `CC(=O)N[C@@H](C)c1ccc(C2CCN(c3ncc(-c4ccc5occc5c4)cn3)CC2)cc1` [Example 10.88] it was 30 nM; in that of `CC(=O)N[C@@H](C)c1ccc(C2CCN(c3cc(-c4ccc5[nH]ccc5c4)ncn3)CC2)cc1` [Example 22.13], 440 nM; in that of `CC(=O)N[C@@H](C)c1ccc(C2CCN(c3ccnc(NC(C)c4ccccc4)n3)CC2)cc1` (stereo partly drawn) [Example 11.39], 6600 nM. Next, `CCOc1ccc(N2CCC(c3ccc([C@H](C)NC(C)=O)cc3)CC2)cc1F` [Example 8.17]: 290 nM; `CC(=O)N[C@@H](C)c1ccc(C2CCN(c3ccc(-c4ccc(F)cc4)cn3)CC2)cc1` [Example 10.310]: 40 nM; `CC(=O)N[C@@H](C)c1ccc(C2CCN(c3cnc(C4CC4)cn3)CC2)cc1` [Example 1.173]: 820 nM. Take `CCOc1ccc(N2CCC(c3ccc([C@H](C)NC(=O)C(C)(C)OC)cc3)CC2)cc1` [Example 6.44]: the IC50 was determined as 25000 nM.

For the compound `CC(=O)N[C@@H](C)c1ccc(C2CCN(c3ncc(-c4ccc5c(c4)CCCO5)cn3)CC2)cc1` [Example 10.90], the IC50 came to 350 nM.

Take `Cc1cc(OC2CC2)ccc1N1CCC(c2ccc([C@H](C)NC(=O)C3CC3)cc2)CC1` [Example 1.91]: the IC50 was 600 nM. Next, `C[C@H](NC(=O)N(C)C)c1ccc(C2CCN(c3ncc4nc(-c5ccsc5)oc4n3)CC2)cc1` [Example 4.302]: 200 nM; `CC(=O)N[C@@H](C)c1ccc(C2CCN(c3ccc4c(c3)OCCCO4)CC2)cc1` [Example 1.44]: 180 nM. Next, `CCCCOc1ccc(N2CCC(c3ccc([C@H](C)NC(C)=O)cc3)CC2)cc1OC` [Example 8.43]: 2100 nM; `CCOc1ccc(N2CCC(c3ccc(CC(C)NC(C)=O)cc3)CC2)cc1` (stereo not drawn) [Example 2.1, N-(2-{4-[1-(4-Ethoxy-phenyl)-piperidin-4-yl]-phenyl}-1-methyl-ethyl)-acetamide]: 2100 nM. In the case of `CC(=O)N[C@@H](C)c1ccc(C2CCN(c3ncc(-c4cnc(C#N)nc4)cn3)CC2)cc1` [Example 10.83] it was 1900 nM; in that of `C[C@H](NC(=O)N(C)C)c1ccc(C2CCN(c3ncc(C4CC4)cn3)CC2)cc1` [Example 4.304], 240 nM; in that of `COc1ccc(N2CCC(c3ccc([C@H](C)NC(C)=O)cc3)CC2)cc1Cl` [Example 8.46], 1000 nM. Consider `CC(=O)N[C@@H](C)c1ccc(C2CCN(c3ncc(-c4ccccc4C)cn3)CC2)cc1` [Example 10.8], for which the IC50 amounted to 200 nM. In the case of `CC(=O)N[C@@H](C)c1ccc(C2CCN(c3noc(C(C)C)n3)CC2)cc1` [Example 26.3] it was 710 nM; in that of `CCCOc1ccc(N2CCC(c3ccc([C@H](C)NC(C)=O)cc3)CC2)nc1` [Example 5.3], 130 nM. In the case of `CC(=O)N[C@@H](C)c1ccc(C2CCN(c3cc(N(C)C4CC4)ncn3)CC2)cc1` [Example 11.87] it was 790 nM; in that of `CCOc1ccc(N2CCC(c3ccc([C@H](C)NC(=O)CC4CC4)cc3)CC2)cc1` [Example 6.13], 1100 nM. Next, `CC(=O)N[C@@H](C)c1ccc(C2CCN(c3cc(F)ncc3C)CC2)cc1` [Example 5.51]: 4800 nM; `CC(=O)N[C@@H](C)c1ccc(C2CCN(c3cc(Cl)nc(N4CCCC4)n3)CC2)cc1` [Example 5.200, (S)—N-(1-{4-[1-(6-Chloro-2-pyrrolidin-1-yl-pyrimidin-4-yl)-piperidin-4-yl]-phenyl}-ethyl)-acetamide]: 7500 nM; `CCCOc1ccc(N2CCC(c3ccc([C@H](C)NC(=O)OC)cc3)CC2)c(OC)c1` [Example 1.132]: 840 nM.

On to `CC(=O)N[C@@H](C)c1ccc(C2CCN(c3ncc(-c4cccc(C)c4)cn3)CC2)cc1` [Example 10.7], for which the IC50 is 40 nM. Next, `CC(=O)N[C@@H](C)c1ccc(C2CCN(c3ccnc(N4CCc5ccccc54)n3)CC2)cc1` [Example 11.49]: 350 nM; `CC(=O)N[C@@H](C)c1ccc(C2CCN(c3ncc(C(=O)N(C)Cc4ccccc4)cn3)CC2)cc1` [Example 18.93]: 800 nM; `COC(=O)c1cnc(N2CCC(c3ccc([C@H](C)NC(C)=O)cc3)CC2)nc1` [Example 4.36]: 1200 nM. Next, `CCCNc1ccc(N2CCC(c3ccc([C@H](C)NC(C)=O)cc3)CC2)cc1` [Example 24.1, (S)—N-(1-{4-[1-(4-(Propylamino)phenyl)-piperidin-4-yl]-phenyl}-ethyl)-acetamide]: 1000 nM; `C[C@H](NC(=O)C1CC1)c1ccc(C2CCN(c3nc(N(C)CC4CC4)ncc3F)CC2)cc1` [Example 11.125]: 340 nM. Next, `CC(=O)N[C@@H](C)c1ccc(C2CCN(c3cccc(OCC4CC4)c3)CC2)cc1` [Example 8.3]: 200 nM; `CC(=O)N[C@@H](C)c1ccc(C2CCN(c3ccc(OC(C)C)c(C#N)c3)CC2)cc1` [Example 8.24]: 12400 nM. Take `CCNc1ncc(N2CCC(c3ccc([C@H](C)NC(C)=O)cc3)CC2)cn1` [Example 16.4]: the IC50 stood at 620 nM. Next, `COC(=O)c1cccc(N2CCC(c3ccc([C@H](C)NC(C)=O)cc3)CC2)c1` [Example 15.2]: 350 nM; `CC(=O)N[C@@H](C)c1ccc(C2CCN(c3ncc(C(=O)N[C@H]4CCOC4)cn3)CC2)cc1` [Example 18.35]: 7300 nM. Next, `CCC(C)Oc1ccc(N2CCC(c3ccc([C@H](C)NC(C)=O)cc3)CC2)c(C#N)c1` (stereo partly drawn) [Example 4.202]: 150 nM. Next, `C[C@H](NC(=O)N(C)C)c1ccc(C2CCN(c3ncc(-c4ccccc4F)cn3)CC2)cc1` [Example 10.110]: 430 nM; `CCC(=O)N[C@@H](C)c1ccc(C2CCN(c3ccc(OCC(C)C)cc3)CC2)cc1` [Example 1.149]: 140 nM; `CC(=O)N[C@@H](C)c1ccc(C2CCN(c3ncc(C(=O)N4Cc5cccnc5C4)cn3)CC2)cc1` [Example 18.38]: 3100 nM. Take `CCOc1cccc(N2CCC(c3ccc([C@H](C)NC(C)=O)cc3)CC2)n1` [Example 4.27]: the IC50 is 330 nM. Next, `CC(=O)N[C@@H](C)c1ccc(C2CCN(c3ncc(C(=O)Nc4ccc(F)cc4)cn3)CC2)cc1` [Example 18.3]: 180 nM. Next, `CC#CCOc1cccc(N2CCC(c3ccc([C@H](C)NC(C)=O)cc3)CC2)c1` [Example 9.8]: 200 nM; `COCCNC(=O)c1cnc(N2CCC(c3ccc([C@H](C)NC(C)=O)cc3)CC2)nc1` [Example 18.55]: 8800 nM. Consider `CCCCOc1cccc(N2CCC(c3ccc([C@H](C)NC(C)=O)cc3)CC2)c1` [Example 8.6], for which the IC50 is 330 nM.

For the compound `CCOc1ccc(N2CCC(c3ccc([C@H](C)NC(=O)CCC#N)cc3)CC2)cc1` [Example 6.39], the IC50 came out at 1300 nM. Regarding `CC(=O)N[C@@H](C)c1ccc(C2CCN(c3cnn(Cc4ccccc4)c3)CC2)cc1` [Example 2.13], the IC50 turned out to be 1900 nM.

As to `CCOc1ccc(N2CCC(c3ccc([C@H](C)NC(=O)NCc4cncnc4)cc3)CC2)cc1` [Example 14.62], the IC50 was found to be 13300 nM. Turning to `CC(=O)N[C@@H](C)c1ccc(C2CCN(c3ncc(C(=O)NC[C@H](O)CO)cn3)CC2)cc1` [Example 18.50], the IC50 amounted to 13300 nM.

With `CCOc1ccc(N2CCC(c3ccc([C@H](C)NC(=O)Nc4cccnc4)cc3)CC2)cc1` [Example 14.55], the IC50 is 1700 nM.

In the case of `CCC(C)Oc1ccc(N2CCC(c3ccc([C@H](C)NC(C)=O)cc3)CC2)c(OC)c1` (stereo partly drawn) [Example 1.39], the IC50 was 130 nM.

For the compound `CC(=O)N[C@@H](C)c1ccc(C2CCN(c3ncc(-c4ccc(Cl)cc4)cn3)CC2)cc1` [Example 4.37], the IC50 amounted to 300 nM. In the case of `CC(=O)N[C@@H](C)c1ccc(C2CCN(c3ccc(Oc4cncnc4)nc3)CC2)cc1` [Example 1.110] it was 4500 nM; in that of `CC(=O)N[C@@H](C)c1ccc(C2CCN(c3ccc(OCC4CCCCO4)cc3)CC2)cc1` (stereo partly drawn) [Example 9.32], 990 nM.

With `CC(=O)N[C@@H](C)c1ccc(C2CCN(c3ccnc(NCCF)n3)CC2)cc1` [Example 11.102], the IC50 amounted to 3200 nM. In the case of `CCCC(C)Oc1ccc(N2CCC(c3ccc([C@H](C)NC(C)=O)cc3)CC2)cc1C#N` (stereo partly drawn) [Example 8.57] it was 3200 nM; in that of `CCC(NC(C)=O)c1ccc(C2CCN(c3ccnc(Oc4ccccc4)c3)CC2)cc1` (stereo not drawn) [Example 15.19], 3900 nM; in that of `CCOc1ccc(N2CCC(c3ccc([C@H](C)NC(=O)N(C)CCc4cn[nH]c4)cc3)CC2)cc1` [Example 14.61], 530 nM. Next, `CCC(=O)N[C@@H](C)c1ccc(C2CCN(c3ccnc(Oc4cncnc4)c3)CC2)cc1` [Example 1.169]: 1700 nM; `CCCOc1ccc(N2CCC(c3ccc([C@H](C)NC(C)=O)cc3)CC2)c(C)c1` [Example 1.32]: 90 nM; `CC(=O)N[C@@H](C)c1ccc(C2CCN(c3ccnc(OCCC(C)C)c3)CC2)cc1` [Example 19.21]: 220 nM. Next, `CC(=O)N[C@@H](C)c1ccc(C2CCN(c3nccc(-c4ccc5c(c4)OCO5)n3)CC2)cc1` [Example 22.3]: 1000 nM; `CC(=O)N[C@@H](C)c1ccc(C2CCN(c3ccc(OCC4CCC4)cc3)CC2)cc1` [Example 9.29]: 60 nM.

On to `CC(=O)NC(C)Cc1ccc(C2CCN(c3ccc(OC4CC4)cc3)CC2)cc1` (stereo not drawn) [Example 2.9], for which the IC50 came to 460 nM.

As to `CC(=O)N[C@@H](C)c1ccc(C2CCN(c3ccc(OCC4CCCO4)cc3)CC2)cc1` (stereo partly drawn) [Example 1.167], the IC50 was determined as 910 nM. Next, `CCCC(C)Oc1ccc(N2CCC(c3ccc([C@H](C)NC(C)=O)cc3)CC2)cc1F` (stereo partly drawn) [Example 8.58]: 370 nM.
